Source: patent publication US8067454B2, “Thio-substituted Anthra [1, 2-d] imidazole- 6, 11-dione derivatives, preparation method and application thereof” (National Defense Medical Center, priority 2010, dated 2011)

Experiments:
OVCAR-5 = experiment: NCI 60-cell drug screen, Ovarian Cancer OVCAR-5; format: cell-based, human; details: 1.00E−5 Molar
HL-60(TB) = experiment: NCI 60-cell drug screen, Leukemia HL-60(TB); format: cell-based, human; details: 1.00E−5 Molar
SNB-75 = experiment: NCI 60-cell drug screen, CNS Cancer SNB-75; format: cell-based, human; details: 1.00E−5 Molar
CAKI-1 = experiment: NCI 60-cell drug screen, Renal Cancer CAKI-1; format: cell-based, human; details: 1.00E−5 Molar
[1] = test system: 60 kinds of different human cancer cells; experiment: NCI 60-cell drug screen, whole panel (One Dose Mean Graph); format: cell-based; details: mean over the cell lines of the panel; 1.00E−5 Molar
PC-3 = experiment: NCI 60-cell drug screen, Prostate Cancer PC-3; format: cell-based, human; details: 1.00E−5 Molar
SK-OV-3 = experiment: NCI 60-cell drug screen, Ovarian Cancer SK-OV-3; format: cell-based, human; details: 1.00E−5 Molar
COLO 205 = experiment: NCI 60-cell drug screen, Colon Cancer COLO 205; format: cell-based, human; details: 1.00E−5 Molar
K-562 = experiment: NCI 60-cell drug screen, Leukemia K-562; format: cell-based, human; details: 1.00E−5 Molar
MDA-MB-468 = experiment: NCI 60-cell drug screen, Breast Cancer MDA-MB-468; format: cell-based, human; details: 1.00E−5 Molar
HOP-62 = experiment: NCI 60-cell drug screen, Non-Small Cell Lung Cancer HOP-62; format: cell-based, human; details: 1.00E−5 Molar
HS 578T = experiment: NCI 60-cell drug screen, Breast Cancer HS 578T; format: cell-based, human; details: 1.00E−5 Molar
HCT-116 = experiment: NCI 60-cell drug screen, Colon Cancer HCT-116; format: cell-based, human; details: 1.00E−5 Molar
HT29 = experiment: NCI 60-cell drug screen, Colon Cancer HT29; format: cell-based, human; details: 1.00E−5 Molar
[2] = test system: SVG p12, GBM8401 and GBM8901; experiment: MTT assay, normal cell versus tumor cells (categories 39-3 to 39-7); details: tumor cell survival rate less than 80%; for category 39-3: survival rate higher than 80% for normal cell SVG p12 and inhibits growth of both tumor cells GBM8401 and GBM8901: FIG. 5A
A498 = experiment: NCI 60-cell drug screen, Renal Cancer A498; format: cell-based, human; details: 1.00E−5 Molar
NCI-H460 = experiment: NCI 60-cell drug screen, Non-Small Cell Lung Cancer NCI-H460; format: cell-based, human; details: 1.00E−5 Molar
OVCAR-8 = experiment: NCI 60-cell drug screen, Ovarian Cancer OVCAR-8; format: cell-based, human; details: 1.00E−5 Molar
SF-268 = experiment: NCI 60-cell drug screen, CNS Cancer SF-268; format: cell-based, human; details: 1.00E−5 Molar
TK-10 = experiment: NCI 60-cell drug screen, Renal Cancer TK-10; format: cell-based, human; details: 1.00E−5 Molar
SW-620 = experiment: NCI 60-cell drug screen, Colon Cancer SW-620; format: cell-based, human; details: 1.00E−5 Molar
EKVX = experiment: NCI 60-cell drug screen, Non-Small Cell Lung Cancer EKVX; format: cell-based, human; details: 1.00E−5 Molar
SVG p12 = experiment: MTT assay, SVG p12 normal cell; details: concentration 10 μM, normal cell
NCI-H322M = experiment: NCI 60-cell drug screen, Non-Small Cell Lung Cancer NCI-H322M; format: cell-based, human; details: 1.00E−5 Molar
MALME-3M = experiment: NCI 60-cell drug screen, Melanoma MALME-3M; format: cell-based, human; details: 1.00E−5 Molar
OVCAR-3 = experiment: NCI 60-cell drug screen, Ovarian Cancer OVCAR-3; format: cell-based, human; details: 1.00E−5 Molar
[3] = test system: telomerase (total cell lysates of lung cancer cell line H1299); experiment: Telomeric Repeat Amplification Protocol (TRAP) assay, screen of telomerase inhibitors; format: biochemical, human; details: 10 μM
Procedure: Telomeric Repeat Amplification Protocol (TRAP) Assay:
Telomerase activity was detected by a modified version of the general TRAP protocol. Telomerase products were resolved by 10% polyacrylamide gel electrophoresis and visualized by staining with SYBER Green. As a source of telomerase, the total cell lysates derived from lung cancer cell line H1299 cells were used. Protein concentration of the lysates was assayed using Bio-Rad protein assay kit using BSA standards.
In the TRAP assay, if a compound can stabilize the G-quadruplex structure such that telomerase can not act on telomere, then the effect of inhibiting the telomerase can be achieved. In the FIG. 2A to FIG. 2C, DMSO treatment represents as the positive control group (P); while a negative control group (N) used 5 μl of 0.1 mg/ml RNase A (CLONTECH) in the assay. It could be observed that a number of telomeric fragments were detected in the positive control group (P), while none was detected in the negative control group (N). 10 μM was selected as the concentration used to screen compounds.

Structure (SMILES)	Growth Percent, OVCAR-5 (OVCAR-5) [%]	Growth Percent, HL-60(TB) (HL-60(TB)) [%]	Growth Percent, SNB-75 (SNB-75) [%]	Growth Percent, Mean [1] [%]	Growth Percent, PC-3 (PC-3) [%]	Growth Percent, SK-OV-3 (SK-OV-3) [%]	Growth Percent, COLO 205 (COLO 205) [%]	Growth Percent, K-562 (K-562) [%]	Growth Percent, HOP-62 (HOP-62) [%]	Growth Percent, HCT-116 (HCT-116) [%]	Growth Percent, A498 (A498) [%]	Growth Percent, NCI-H460 (NCI-H460) [%]	Growth Percent, OVCAR-8 (OVCAR-8) [%]	Growth Percent, SF-268 (SF-268) [%]	Growth Percent, TK-10 (TK-10) [%]	Growth Percent, SW-620 (SW-620) [%]	Growth Percent, EKVX (EKVX) [%]	Cell survival rate (%) SVG p12 (SVG p12) [%]	Growth Percent, NCI-H322M (NCI-H322M) [%]	Growth Percent, MALME-3M (MALME-3M) [%]	also measured
CCSc1nc2ccc3c(c2[nH]1)C(=O)c1ccccc1C3=O [f1-1, 2-(Ethylthio)-1H-anthra[1,2-d]imidazole-6,11-dione]	85.38	62.64	73.34	67.96	53.79	24.72	71.84	86.29	96.59	68.78	75.49	38.83	96.82	75.67	74.09	84.53	43.67	98 ± 8	33.44	63.33	Growth Percent, CAKI-1 (CAKI-1): −8.01%; Growth Percent, MDA-MB-468 (MDA-MB-468): 35.36%; Growth Percent, HS 578T (HS 578T): 85.44%; Growth Percent, HT29 (HT29): 75.18%; category 39-3: survival rate higher than 80% for normal cell SVG p12 and inhibits growth of both tumor cells GBM8401 and GBM8901 [2]: in this category; Growth Percent, OVCAR-3 (OVCAR-3): 69.27%
O=C1c2ccccc2C(=O)c2c1ccc1nc(S)[nH]c21 [f1-0, 2-Mercapto-1(3)H-anthra[1,2-d]imidazole-6,11-dione]	129.22	97.58	100.90	99.72	78.80	103.17	103.96	108.55	96.74	96.31	94.31	98.61	139.75	90.30	111.74	97.56	50.53	82 ± 5	96.31	87.50	Growth Percent, CAKI-1 (CAKI-1): 91.23%; Growth Percent, MDA-MB-468 (MDA-MB-468): 87.69%; Growth Percent, HS 578T (HS 578T): 103.53%; Growth Percent, HT29 (HT29): 103.79%; Growth Percent, OVCAR-3 (OVCAR-3): 86.94%
O=C1c2ccccc2C(=O)c2c1ccc1nc3n(c21)CCS3 [f3-1, 2-(2-N-ethylthio)-1H-anthra[1,2-d]imidazole-6,11-dione]	105.31	78.84	95.57	75.99	93.92	87.43	95.22	78.71	85.26	68.43	73.67	59.46	75.40	56.15	58.78	69.29	35.80	62 ± 1	72.06	87.59	inhibition effect against telomerase [3]: exhibited inhibition effect against telomerase; Growth Percent, MDA-MB-468 (MDA-MB-468): 69.68%
CCCSc1nc2ccc3c(c2[nH]1)C(=O)c1ccccc1C3=O [f1-2, 2-(propylthio)-1H-anthra[1,2-d]imidazole-6,11-dione]	99.67	74.23	−9.55	60.02	66.76	38.92	102.68	62.88	59.09	47.69	57.26	68.12	44.68	47.81	35.55	104.18	76.83	99	76.02	88.24	Growth Percent, CAKI-1 (CAKI-1): 45.47%; Growth Percent, HS 578T (HS 578T): 33.33%; Growth Percent, HT29 (HT29): 75.10%; category 39-3: survival rate higher than 80% for normal cell SVG p12 and inhibits growth of both tumor cells GBM8401 and GBM8901 [2]: in this category; Growth Percent, OVCAR-3 (OVCAR-3): 62.71%
CN(C)CCCSc1nc2ccc3c(c2[nH]1)C(=O)c1ccccc1C3=O [f1-15, 2-(3-(dimethylamino)propylthio)-1H-anthra[1,2-d]imidazole-6,11-dione]	87.88	12.74	50.54	47.41	36.71	32.36	62.01	−31.59	51.96	27.58	76.16	23.20	61.89	53.13	31.68	26.35	65.23	11 ± 6	70.75	88.23	Growth Percent, CAKI-1 (CAKI-1): −14.89%; Growth Percent, HS 578T (HS 578T): 69.32%; Growth Percent, HT29 (HT29): 17.84%; Growth Percent, OVCAR-3 (OVCAR-3): 59.33%
O=C1c2ccccc2C(=O)c2c1ccc1nc(SCCN3CCCC3)[nH]c21 [f1-11]	87.49	37.41	81.75	52.08	6.90	55.57	17.13	26.94	73.74	38.81	71.37	34.08	49.38	42.04	36.86	22.75	73.04	98 ± 1	73.18	112.31	Growth Percent, MDA-MB-468 (MDA-MB-468): 67.90%; category 39-5: survival rate higher than 80% for normal cell SVG p12 and only inhibits growth of tumor cell GBM8901 ([2]; FIG. 5C): in this category
